Measurements published in ChEMBL document CHEMBL1123199, “Synthesis and structure-activity relationships of naftifine-related allylamine antimycotics” (1986).
In brackets after ≈: the same amount, converted by molar mass.

Experiments:
Microsporum canis = test: Antifungal activity against Microsporum canis; type: functional
[1] = Antifungal activity against Trichophyton mentagrophytes.; type: functional, Arthroderma benhamiae; settings: Trichophyton benhamiae
Aspergillus fumigatus = test: Antifungal activity measured against Aspergillus fumigatus; type: functional
Epidermophyton floccosum = test: Antifungal activity against Epidermophyton floccosum.; type: functional
Sporothrix schenckii [2] = test: Antifungal activity measured against Sporothrix schenck ii.; type: functional
Candida parapsilosis = test: Antifungal activity against Candida parapsilosis.; type: functional; settings: Lodderomyces parapsilosis
Cavia porcellus [3] = test: In vivo antifungal activity by topical treatment of guinea pig dermatophytosis caused by Trichophyton mentagrophytes at a dose of 2%; type: functional
Cavia porcellus [4] = test: In vivo antifungal activity by topical treatment of guinea pig dermatophytosis caused by Trichophyton mentagrophytes at a dose of 0.5%; type: functional
Cavia porcellus [5] = test: In vivo antifungal activity by topical treatment of guinea pig dermatophytosis caused by Trichophyton mentagrophytes at a dose of 0.1%; type: functional
Trichophyton benhamiae = test: Antifungal activity measured against Trichophyton mentagrophytes; type: functional, Arthroderma benhamiae
Sporothrix schenckii [6] = test: Antifungal activity was measured against Sporothrix schenck ii.; type: functional
Trichophyton quinckeanum = test: Antifungal activity was measured against Trichophyton mentagrophytes.; type: functional, ptrichophyton mentagrophytes

| SMILES | MIC (Microsporum canis) | MIC [1] | MIC (Aspergillus fumigatus) | MIC (Epidermophyton floccosum) | MIC (Sporothrix schenckii [2]) | MIC (Candida parapsilosis) | MIC (Trichophyton benhamiae) | MIC (Sporothrix schenckii [6]) | MIC (Trichophyton quinckeanum) | Activity (Cavia porcellus [3]) | Activity (Cavia porcellus [4]) | Activity (Cavia porcellus [5]) |
| --- | --- | --- | --- | --- | --- | --- | --- | --- | --- | --- | --- | --- |
| CN(C/C=C/c1ccccc1)Cc1ccc(Cl)c2ccccc12 | 0.1 mg/L (≈ 0.311 µM) | 0.05 mg/L (≈ 0.155 µM) | > 100 mg/L | 0.1 mg/L (≈ 0.311 µM) | 3.1 mg/L (≈ 9.63 µM) | 1.6 mg/L (≈ 4.97 µM) |  |  |  | 88% | 44% | 18% |
| Cc1ccc(CN(C)C/C=C/c2ccccc2)c2ccccc12 | 0.4 mg/L (≈ 1.33 µM) | 0.1 mg/L (≈ 0.332 µM) | > 100 mg/L | 0.2 mg/L (≈ 0.663 µM) | 3.1 mg/L (≈ 10.3 µM) | 12.5 mg/L (≈ 41.5 µM) |  |  |  |  |  |  |
| CN(C/C=C/c1ccccc1)Cc1ccccc1 | > 100 mg/L | > 100 mg/L | > 100 mg/L | > 100 mg/L | > 100 mg/L | > 100 mg/L |  |  |  |  |  |  |
| CN(C/C=C/c1ccccc1)Cc1ccc2ccccc2c1 | 50 mg/L (≈ 174 µM) | 25 mg/L (≈ 87 µM) | > 100 mg/L | 25 mg/L (≈ 87 µM) | 100 mg/L (≈ 348 µM) | > 100 mg/L |  |  |  |  |  |  |
| CN(C/C=C/c1ccccc1)C1CCCc2ccccc21 (stereo unspecified) | 50 mg/L (≈ 180 µM) | 12.5 mg/L (≈ 45.1 µM) | > 100 mg/L | 50 mg/L (≈ 180 µM) | 100 mg/L (≈ 360 µM) | > 100 mg/L |  |  |  |  |  |  |
| COc1ccc2c(CN(C)C/C=C/c3ccccc3)cccc2c1 | 12.5 mg/L (≈ 39.4 µM) | 1.6 mg/L (≈ 5.04 µM) | > 100 mg/L | 12.5 mg/L (≈ 39.4 µM) | 25 mg/L (≈ 78.8 µM) | > 100 mg/L |  |  |  |  |  |  |
| CN(C/C=C/C(=O)O)Cc1cccc2ccccc12 | < 100 mg/L | < 100 mg/L | < 100 mg/L | < 100 mg/L | < 100 mg/L | < 100 mg/L |  |  |  |  |  |  |
| CN(C/C=C/c1ccccc1)Cc1c2ccccc2cc2ccccc12 | 0.8 mg/L (≈ 2.37 µM) |  | 100 mg/L (≈ 296 µM) | 0.4 mg/L (≈ 1.19 µM) | 50 mg/L (≈ 148 µM) | 100 mg/L (≈ 296 µM) | 0.8 mg/L (≈ 2.37 µM) |  |  | 38% | 0% | 0% |
| COc1ccc(CN(C)C/C=C/c2ccccc2)c2ccccc12 | ≤ 1.6 mg/L | ≤ 1.6 mg/L | > 100 mg/L | ≤ 1.6 mg/L | 50 mg/L (≈ 158 µM) | 50 mg/L (≈ 158 µM) |  |  |  | 65% | 41% |  |
| CCOC(=O)/C=C/C=C/CN(C)Cc1cccc2ccccc12 | 3.1 mg/L (≈ 10 µM) |  | > 100 mg/L | 3.1 mg/L (≈ 10 µM) |  | > 100 mg/L | < 1.6 mg/L | 100 mg/L (≈ 323 µM) |  |  |  |  |
| CCCCCOC(=O)/C=C/CN(C)Cc1cccc2ccccc12 | < 1.6 mg/L |  | 50 mg/L (≈ 154 µM) | < 1.6 mg/L | < 1.6 mg/L | 25 mg/L (≈ 76.8 µM) | < 1.6 mg/L |  |  | 10% | 0% | 0% |
| CN(C/C=C/C1=CCCCCC1)Cc1cccc2ccccc12 | 0.05 mg/L (≈ 0.164 µM) |  | 25 mg/L (≈ 81.8 µM) | 0.1 mg/L (≈ 0.327 µM) | 0.8 mg/L (≈ 2.62 µM) | 1.6 mg/L (≈ 5.24 µM) | 0.05 mg/L (≈ 0.164 µM) |  |  | 100% | 85% | 29% |

Now from value to compound, other results behind:

| MIC (Microsporum canis) | MIC [1] | MIC (Aspergillus fumigatus) | MIC (Epidermophyton floccosum) | MIC (Sporothrix schenckii [2]) | MIC (Candida parapsilosis) | MIC (Trichophyton benhamiae) | MIC (Sporothrix schenckii [6]) | MIC (Trichophyton quinckeanum) | SMILES | Activity (Cavia porcellus [3]) | Activity (Cavia porcellus [4]) | Activity (Cavia porcellus [5]) |
| --- | --- | --- | --- | --- | --- | --- | --- | --- | --- | --- | --- | --- |
| 50 mg/L (≈ 166 µM) | 50 mg/L (≈ 166 µM) | > 100 mg/L | 50 mg/L (≈ 166 µM) | > 100 mg/L | > 100 mg/L |  |  |  | CN(C/C=C/Cc1ccccc1)Cc1cccc2ccccc12 |  |  |  |
| 12.5 mg/L (≈ 39.6 µM) | 1.6 mg/L (≈ 5.07 µM) | > 100 mg/L | 12.5 mg/L (≈ 39.6 µM) | > 100 mg/L | > 100 mg/L |  |  |  | CN(C/C=C/CCc1ccccc1)Cc1cccc2ccccc12 |  |  |  |
| 50 mg/L (≈ 166 µM) | 12.5 mg/L (≈ 41.5 µM) | 100 mg/L (≈ 332 µM) | 25 mg/L (≈ 82.9 µM) | 25 mg/L (≈ 82.9 µM) | 50 mg/L (≈ 166 µM) |  |  |  | CN(C/C=C/c1ccccc1)CCc1cccc2ccccc12 |  |  |  |
| 100 mg/L (≈ 348 µM) | 100 mg/L (≈ 348 µM) | > 100 mg/L | 100 mg/L (≈ 348 µM) | 100 mg/L (≈ 348 µM) | > 100 mg/L |  |  |  | CN(C/C=C/c1cccc2ccccc12)Cc1ccccc1 |  |  |  |
| > 100 mg/L | 3.1 mg/L (≈ 11.3 µM) | > 100 mg/L | > 100 mg/L | > 100 mg/L | > 100 mg/L |  |  |  | C(=C\c1ccccc1)/COCc1cccc2ccccc12 |  |  |  |
| > 100 mg/L | 12.5 mg/L (≈ 43.2 µM) | > 100 mg/L | > 100 mg/L | > 100 mg/L | > 100 mg/L |  |  |  | CN(CCCc1ccccc1)Cc1cccc2ccccc12 |  |  |  |
| ≤ 1.6 mg/L |  | 100 mg/L (≈ 327 µM) | ≤ 1.6 mg/L | 6.25 mg/L (≈ 20.5 µM) | 12.5 mg/L (≈ 40.9 µM) |  |  | ≤ 1.6 mg/L | CN(C/C=C/c1ccccc1F)Cc1cccc2ccccc12 | 94% | 59% | 0% |
